In patent US20250333431A1, “NEW CRYSTAL FORM OF TRISACCHARIDE” (SHANDONG HENGLU BIOTECH. CO., LTD., priority 2022, published 2025):

Columns and labels:
[1] = Moisture absorption measurement in a Constant Temperature & Humidity Chamber; format: physicochemical; settings: for Moisture absorption rate, % / Weight gain after moisture absorption: after 5 days; for Weight gain after moisture absorption: about 1 g sample; for Appearance before experiment: before placing in chamber, open glass culture dish
Experimental: On the day before the constant temperature and moisture test, two dry glass culture dishes (without covers) are taken and placed in a Constant Temperature & Humidity Chamber at 25±1° C. and relative humidity of 75±2% for 4 h. The processed dishes are taken out and weighed accurately. The experiment is repeated until the weight is constant, and the data is recorded in Table 3.
Step 2. The raw material LNTII solid amorphous powder and the crystalline form B of LNTII obtained from Example 1 are weighed separately, placed in a glass culture dish without cover with constant weight in Step 1. The culture dish with samples added are placed in a Constant Temperature & Humidity Chamber at 25° C. and relative humidity of 75%. After 5 days, the samples are taken out to observe the appearance changes, weigh, and calculate the moisture absorption. The results are recorded in Table 2 and Table 3, respectively. The results of samples morphology before and after moisture absorption are shown in FIG. 5 and FIG. 6, respectively.
According to the method described herein in Example 9, the crystalline form B of LNTII prepared according to Examples 1-8 is placed in a glass culture dish without cover with constant weight in Step 1. The culture dish with samples added are placed in a Constant Temperature & Humidity Chamber at 25° C. and relative humidity of 75%. After 5 days, the samples are taken out to observe the appearance changes, weigh, and calculate the moisture absorption.

[2] = Stability study in a Constant Temperature & Humidity Chamber (LNTII content by HPLC and appearance); format: physicochemical; settings: for Content, % (At the end of the 1st month): sealed with aluminum compound packing film; for Content, % (At the end of the 1st month) / Appearance (At the end of the 1st month): 1 month; for Appearance (At the end of the 1st month) / Content, % (At the end of the 2nd month) / Appearance (At the end of the 3rd month) / Content, % (At the end of the 3rd month): sealed; for Content, % (At the end of the 2nd month): 2 months; for Content, % (Day 0): LNTII content by HPLC
Experimental: In this invention, high-performance liquid chromatography (HPLC) is used to detect the content of LNTII under the following detection conditions:
Chromatographic column: Asahipak NH2P-504E 4.6 mm×250 mm, 5 μm, mobile phase: acetonitrile: water=65:35, flow rate: 1 mL/min, detector: UV-VIS detector, wavelength: 210 nm, column temperature: 30° C., sample volume: 10 μL, and the running time of 30 min.
An amount of 10 g of raw material before crystallization (i.e. LNTII amorphous powder obtained by spray-drying) and 10 g of crystalline form B of LNTII prepared by the method described herein in Examples 1-8 are weighed respectively, sealed with aluminum compound packing film, and placed in a Constant Temperature & Humidity Chamber under the test conditions of at constant temperature of 40° C. and relative humidity of 75%. Samples are taken at the end of the 1st month, the 2nd month, and the 3rd month to test the content of LNTII and observe its appearance.

[3] = 25° C., relative humidity 75%, Table 4, Examples 1-8
[4] = 40° C., relative humidity 75%, 3 months
[5] = 25° C., relative humidity 75%, Table 3, (weight gain/sample weight) × 100%

Row | Moisture absorption rate, % [1, 3] [%] | Content, % (At the end of the 1st month) ([2]; 40° C., relative humidity 75%) [%] | Appearance (At the end of the 1st month) ([2]; 40° C., relative humidity 75%) | Content, % (At the end of the 2nd month) ([2]; 40° C., relative humidity 75%) [%] | Appearance (At the end of the 3rd month) [2, 4] | Content, % (At the end of the 3rd month) [2, 4] [%] | Content, % (Day 0) [2] [%] | Stability compared with amorphous powder (from appearance and moisture absorption) ([1]; 25° C., relative humidity 75%, 5 days, conclusion from Tables 2 and 3) | Moisture absorption rate, % [1, 5] [%] | Weight gain after moisture absorption ([1]; 25° C., relative humidity 75%) | Appearance before experiment [1] | Change of LNTII content during the stability experiment [2, 4] | Change of appearance/color during the stability experiment [2, 4] | SMILES
1 | 13.32 | 92.43 | Off-white | 92.39 | Off-white | 92.31 | 92.4 | – | – | – | – | – | – | CC(=O)NC1C(O)[C@H](O)C(CO)O[C@H]1OC1C(O)[C@H](O[C@@H]2C(CO)OC(O)C(O)C2O)OC(CO)[C@@H]1O (single isomer, unassigned) [Crystalline form B in Example 6, Lacto-N-triose II]
2 | 13.04 | 93.77 | Off-white | 93.81 | Off-white | 93.75 | 93.8 | – | – | – | – | – | – | CC(=O)NC1C(O)[C@H](O)C(CO)O[C@H]1OC1C(O)[C@H](O[C@@H]2C(CO)OC(O)C(O)C2O)OC(CO)[C@@H]1O (single isomer, unassigned) [Crystalline form B in Example 7, Lacto-N-triose II]
3 | 13.61 | 96.48 | Off-white | 96.49 | Off-white | 96.46 | 96.5 | – | – | – | – | – | – | CC(=O)NC1C(O)[C@H](O)C(CO)O[C@H]1OC1C(O)[C@H](O[C@@H]2C(CO)OC(O)C(O)C2O)OC(CO)[C@@H]1O (single isomer, unassigned) [Crystalline form B in Example 8, Lacto-N-triose II]
4 | – | – | – | – | – | – | – | better than that of amorphous powder | 16.16 | 0.1617 | Off-white | – | – | CC(=O)NC1C(O)[C@H](O)C(CO)O[C@H]1OC1C(O)[C@H](O[C@@H]2C(CO)OC(O)C(O)C2O)OC(CO)[C@@H]1O (stereo partly shown) [Crystalline form B of LNTII, Lacto-N-triose II]
5 | – | 91.01 | Off-white | 90.86 | – | 90.01 | 91.24 | – | 29.47 | 0.2951 | Off-white powder | showed a decreasing trend | gradually changed to faint yellow | CC(=O)NC1C(O)[C@H](O)C(CO)O[C@H]1OC1C(O)[C@H](O[C@@H]2C(CO)OC(O)C(O)C2O)OC(CO)[C@@H]1O (stereo partly shown) [LNTII amorphous powder, Lacto-N-triose II, reference compound]

The remaining lines, values behind:

Row | SMILES | Moisture absorption rate, % [1, 3] [%] | Content, % (At the end of the 1st month) ([2]; 40° C., relative humidity 75%) [%] | Appearance (At the end of the 1st month) ([2]; 40° C., relative humidity 75%) | Content, % (At the end of the 2nd month) ([2]; 40° C., relative humidity 75%) [%] | Appearance (At the end of the 3rd month) [2, 4] | Content, % (At the end of the 3rd month) [2, 4] [%] | Content, % (Day 0) [2] [%] | Stability compared with amorphous powder (from appearance and moisture absorption) ([1]; 25° C., relative humidity 75%, 5 days, conclusion from Tables 2 and 3) | Moisture absorption rate, % [1, 5] [%] | Weight gain after moisture absorption ([1]; 25° C., relative humidity 75%) | Appearance before experiment [1] | Change of LNTII content during the stability experiment [2, 4] | Change of appearance/color during the stability experiment [2, 4]
6 | CC(=O)NC1C(O)[C@H](O)C(CO)O[C@H]1OC1C(O)[C@H](O[C@@H]2C(CO)OC(O)C(O)C2O)OC(CO)[C@@H]1O (single isomer, unassigned) [Crystalline form B in Example 1, Lacto-N-triose II] | 14.02 | 96.81 | Off-white | 96.78 | Off-white | 96.76 | 96.8 | – | – | – | – | – | –
7 | CC(=O)NC1C(O)[C@H](O)C(CO)O[C@H]1OC1C(O)[C@H](O[C@@H]2C(CO)OC(O)C(O)C2O)OC(CO)[C@@H]1O (single isomer, unassigned) [Crystalline form B in Example 2, Lacto-N-triose II] | 14.36 | 96.44 | Off-white | 96.42 | Off-white | 96.38 | 96.5 | – | – | – | – | – | –
8 | CC(=O)NC1C(O)[C@H](O)C(CO)O[C@H]1OC1C(O)[C@H](O[C@@H]2C(CO)OC(O)C(O)C2O)OC(CO)[C@@H]1O (single isomer, unassigned) [Crystalline form B in Example 3, Lacto-N-triose II] | 13.57 | 96.92 | Off-white | 96.93 | Off-white | 96.84 | 96.9 | – | – | – | – | – | –
9 | CC(=O)NC1C(O)[C@H](O)C(CO)O[C@H]1OC1C(O)[C@H](O[C@@H]2C(CO)OC(O)C(O)C2O)OC(CO)[C@@H]1O (single isomer, unassigned) [Crystalline form B in Example 4, Lacto-N-triose II] | 13.81 | 96.13 | Off-white | 96.06 | Off-white | 96.07 | 96.1 | – | – | – | – | – | –
10 | CC(=O)NC1C(O)[C@H](O)C(CO)O[C@H]1OC1C(O)[C@H](O[C@@H]2C(CO)OC(O)C(O)C2O)OC(CO)[C@@H]1O (single isomer, unassigned) [Crystalline form B in Example 5, Lacto-N-triose II] | 13.79 | 93.56 | Off-white | 93.48 | Off-white | 93.34 | 93.4 | – | – | – | – | – | –
